Results: US20150218212A1, “FLUORINATED EPOXYKETONE-BASED TETRAPEPTIDE COMPOUNDS AND USES THEREOF AS PROTEASOME INHIBITORS” (FLUORINOV PHARMA INC., priority 2012, published 2015)

Experiments:
Assay type in all cases: cell-based, human
[1] = system: UACC-62; test: NCI screening panel, UACC-62 (Melanoma)
Protocol: (§1) Representative compounds of Formula I were screened using the National Cancer Institute (NCI) screening panel, which consists of a panel of human tumor cell lines, representing leukemia, melanoma, and cancers of the lung, colon, ovary, breast, prostate and renal system.
(§2) After 24 h, two plates of each cell line are fixed in situ with TCA, to represent a measurement of the cell population for each cell line at the time of drug addition (Tz). Experimental drugs are solubilised in dimethyl sulfoxide at 400-fold the desired final maximum test concentration and stored frozen prior to use. At the time of drug addition, an aliquot of frozen concentrate is thawed and diluted to twice the desired final maximum test concentration with complete medium containing 50 μg/mL gentamicin. Additional four, 10-fold or ½ log serial dilutions are made to provide a total of five drug concentrations plus control. Aliquots of 100 μl of these different drug dilutions are added to the appropriate microtiter wells already containing 100 μl of medium, resulting in the required final drug concentrations.
(§3) Following drug addition, the plates are incubated for an additional 48 h at 37° C., 5% CO2, 95% air, and 100% relative humidity. For adherent cells, the assay is terminated by the addition of cold TCA (trichloroacetic acid). Cells are fixed in situ by the gentle addition of 50 μl of cold 50% (w/v) TCA (final concentration, 10% TCA) and incubated for 60 minutes at 4° C. The supernatant is discarded, and the plates are washed five times with tap water and air dried. Sulforhodamine B (SRB) solution (100 μl) at 0.4% (w/v) in 1% acetic acid is added to each well, and plates are incubated for 10 minutes at room temperature. After staining, unbound dye is removed by washing five times with 1% acetic acid and the plates are air dried. Bound stain is subsequently solubilised with 10 mM trizma base, and the absorbance is read on an automated plate reader at a wavelength of 515 nm. For suspension cells, the methodology is the same except that the assay is terminated by fixing settled cells at the bottom of the wells by gently adding 50 μl of 80% TCA (final concentration, 16% TCA). Using the seven absorbance measurements [time zero, (Tz), control growth, (C), and test growth in the presence of drug at the five concentration levels (Ti)], the percentage growth is calculated at each of the drug concentrations levels. Percentage growth inhibition is calculated as: [(Ti−Tz)/(C−Tz)]×100 for concentrations for which Ti>/=Tz and [(Ti−Tz)/Tz]×100 for concentrations for which Ti<Tz.
(§4) Three dose response parameters are calculated for each experimental agent. Growth inhibition of 50% (GI50) is calculated from [(Ti−Tz)/(C−Tz)]×100=50, which is the drug concentration resulting in a 50% reduction in the net protein increase (as measured by SRB staining) in control cells during the drug incubation. The drug concentration resulting in total growth inhibition (TGI) is calculated from Ti=Tz. The LC50 (concentration of drug resulting in a 50% reduction in the measured protein at the end of the drug treatment as compared to that at the beginning) indicating a net loss of cells following treatment is calculated from [(Ti−Tz)/Tz]×100=−50. Values are calculated for each of these three parameters if the level of activity is reached. However, if the effect is not reached or is exceeded, the value for that parameter is expressed as greater or less than the maximum or minimum concentration tested.

[2] = system: SK-MEL-2; test: NCI screening panel, SK-MEL-2 (Melanoma)
Protocol: as §1, §2, §3, §4

[3] = system: OVCAR-8; test: NCI screening panel, OVCAR-8 (Ovarian Cancer)
Protocol: as §1, §2, §3, §4

[4] = system: COLO 205; test: NCI screening panel, COLO 205 (Colon Cancer)
Protocol: as §1, §2, §3, §4

[5] = system: OVCAR-3; test: NCI screening panel, OVCAR-3 (Ovarian Cancer)
Protocol: as §1, §2, §3, §4

[6] = system: SK-MEL-5; test: NCI screening panel, SK-MEL-5 (Melanoma)
Protocol: as §1, §2, §3, §4

[7] = system: 786-0; test: NCI screening panel, 786-0 (Renal Cancer)
Protocol: as §1, §2, §3, §4

[8] = system: HCC-2998; test: NCI screening panel, HCC-2998 (Colon Cancer)
Protocol: as §1, §2, §3, §4

[9] = system: NCI-H226; test: NCI screening panel, NCI-H226 (Non-Small Cell Lung Cancer)
Protocol: as §1, §2, §3, §4

[10] = system: UACC-257; test: NCI screening panel, UACC-257 (Melanoma)
Protocol: as §1, §2, §3, §4

[11] = system: NCI/ADR-RES; test: NCI screening panel, NCI/ADR-RES (Ovarian Cancer)
Protocol: as §1, §2, §3, §4

[12] = system: RXF 393; test: NCI screening panel, RXF 393 (Renal Cancer)
Protocol: as §1, §2, §3, §4

[13] = system: SW-620; test: NCI screening panel, SW-620 (Colon Cancer)
Protocol: as §1, §2, §3, §4

Structure (SMILES) | Log10GI50 [1] | Log10LC50 [1] | Log10TGI50 [1] | Log10GI50 [2] | Log10LC50 [2] | Log10TGI50 [2] | Log10GI50 [3] | Log10LC50 [3] | Log10TGI50 [3] | Log10GI50 [4] | Log10LC50 [4] | Log10TGI50 [4] | Log10GI50 [5] | Log10LC50 [5] | Log10TGI50 [5] | Log10GI50 [6] | Log10LC50 [6] | Log10TGI50 [6] | Log10GI50 [7] | Log10LC50 [7] | other results
CC(C)C[C@H](NC(=O)[C@H](COC(F)F)NC(=O)CN1CCOCC1)C(=O)N[C@@H](COC(F)F)C(=O)N[C@@H](CC(C)C)C(=O)[C@@]1(C)CO1 [Example 1, (2S)—N-[(1S)-1-(difluoromethoxymethyl)-2-[[(1S)-3-methyl-1-[(2R)-2-methyloxirane-2-carbonyl]butyl]amino]-2-oxo-ethyl]-2-[[(2S)-3-(difluoromethoxy)-2-[(2-morpholinoacetyl)amino]propanoyl]amino]-4-methyl-pentanamide] | −7.60 | >−4.00 | −6.95 | −7.60 | >−4.00 | −7.03 | −6.85 | >−4.00 | >−4.00 | −7.39 | −5.59 | −6.72 | −7.69 | −6.91 | −7.34 | −7.55 | −6.30 | −6.97 | −6.60 | −5.05 | Log10TGI50 [7]: −5.84; Log10GI50 [8]: −7.74; Log10LC50 [8]: −7.16; Log10TGI50 [8]: −7.45; Log10GI50 [9]: −7.73; Log10LC50 [9]: −7.07; Log10TGI50 [9]: −7.40; Log10GI50 [10]: −7.01; Log10LC50 [10]: >−4.00; Log10TGI50 [10]: −5.62; Log10GI50 [11]: −5.10; Log10LC50 [11]: >−4.00; Log10TGI50 [11]: >−4.00; Log10GI50 [12]: −6.96; Log10LC50 [12]: −6.21; Log10TGI50 [12]: −6.59; Log10GI50 [13]: −7.54; Log10LC50 [13]: >−4.00; Log10TGI50 [13]: −5.43
CC(C)C[C@H](NC(=O)[C@H](COC(F)F)NC(=O)[C@H](COC(F)F)NC(=O)[C@H](CCc1ccccc1)NC(=O)CN1CCOCC1)C(=O)[C@@]1(C)CO1 [Example 7, (2S)-N-[(1S)-1-(difluoromethoxymethyl)-2-[[(1S)-1-(difluoromethoxymethyl)-2-[[(1S)-3-methyl-1-[(2R)-2-methyloxirane-2-carbo-nyl]butyl]amino]-2-oxo-ethyl]amino]-2-oxo-ethyl]-2-[(2-morpholinoacetyl)amino]-4-phenyl-butanamide] | −7.49 | −4.37 | −6.73 | −7.54 | >−4.00 | −6.86 | −6.94 | >−4.00 | −5.93 | −7.23 | >−4.00 | −5.89 | −7.64 | −6.40 | −7.24 | −7.55 | −6.35 | −6.99 | −6.45 | >−4.00 | Log10TGI50 [7]: −5.33; Log10GI50 [8]: −7.60; Log10LC50 [8]: −6.55; Log10TGI50 [8]: −7.21; Log10GI50 [9]: −7.75; Log10LC50 [9]: −7.08; Log10TGI50 [9]: −7.41; Log10GI50 [10]: −6.80; Log10LC50 [10]: >−4.00; Log10TGI50 [10]: −6.03; Log10GI50 [11]: −5.16; Log10LC50 [11]: >−4.00; Log10TGI50 [11]: >−4.00; Log10GI50 [12]: −6.93; Log10LC50 [12]: −6.22; Log10TGI50 [12]: −6.57; Log10GI50 [13]: −7.61; Log10LC50 [13]: >−4.00; Log10TGI50 [13]: −5.63
CC(C)C[C@H](NC(=O)[C@H](COC(F)F)NC(=O)CN1CCOCC1)C(=O)N[C@@H](Cc1ccccc1)C(=O)N[C@@H](CC(C)C)C(=O)[C@@]1(C)CO1 [Example 2, (2S)-N-[(1S)-1-benzyl-2-[[(1S)-3-methyl-1-[(2R)-2-methyloxirane-2-carbonyl]butyl]-amino]-2-oxo-ethyl]-2-[[(2S)-3-(difluoromethoxy)-2-[(2-morpholinoacetyl)amino]propanoyl]amino]-4-methyl-pentanamide] | −7.59 | >−4.00 | −6.82 | −7.66 | >−4.00 | −7.06 | −7.22 | >−4.00 | −6.25 | −7.44 | −5.93 | −6.69 | −7.80 | −6.64 | −7.34 | −7.53 | −6.23 | −6.94 | −7.09 | >−4.00 | Log10TGI50 [7]: −6.01; Log10GI50 [8]: −7.77; Log10LC50 [8]: −7.15; Log10TGI50 [8]: −7.46; Log10GI50 [9]: −7.83; Log10LC50 [9]: −7.12; Log10TGI50 [9]: −7.48; Log10GI50 [10]: −7.23; Log10LC50 [10]: −4.58; Log10TGI50 [10]: −6.43; Log10GI50 [11]: −5.80; Log10LC50 [11]: >−4.00; Log10TGI50 [11]: >−4.00; Log10GI50 [12]: −7.52; Log10LC50 [12]: −6.41; Log10TGI50 [12]: −6.98; Log10GI50 [13]: <−8.00; Log10LC50 [13]: >−4.00; Log10TGI50 [13]: −5.92
